Measured values as given in patent publication US8513307B2, “N-phenylacetamide inhibitors of the enzyme SOAT-1 and pharmaceutical/cosmetic compositions comprised thereof” (Galderma Research & Development, priority 2007, dated 2013).

target: T1, enzyme ACAT-1 (Homo sapiens, UniProt P35610); assay: primary enzymatic test HepG2: NBD-cholesterol fluorescence test of inhibitory action on ACAT-1 (SOAT-1); assay type: cell-based; settings: HepG2 cells, NBD-cholesterol 1 μg/ml, incubation 6 h at 37° C., fluorescence excitation 490 nm, emission 540 nm
T1 construct: endogenous in cells; host or cells: HepG2
T1 sequence (P35610 1-550): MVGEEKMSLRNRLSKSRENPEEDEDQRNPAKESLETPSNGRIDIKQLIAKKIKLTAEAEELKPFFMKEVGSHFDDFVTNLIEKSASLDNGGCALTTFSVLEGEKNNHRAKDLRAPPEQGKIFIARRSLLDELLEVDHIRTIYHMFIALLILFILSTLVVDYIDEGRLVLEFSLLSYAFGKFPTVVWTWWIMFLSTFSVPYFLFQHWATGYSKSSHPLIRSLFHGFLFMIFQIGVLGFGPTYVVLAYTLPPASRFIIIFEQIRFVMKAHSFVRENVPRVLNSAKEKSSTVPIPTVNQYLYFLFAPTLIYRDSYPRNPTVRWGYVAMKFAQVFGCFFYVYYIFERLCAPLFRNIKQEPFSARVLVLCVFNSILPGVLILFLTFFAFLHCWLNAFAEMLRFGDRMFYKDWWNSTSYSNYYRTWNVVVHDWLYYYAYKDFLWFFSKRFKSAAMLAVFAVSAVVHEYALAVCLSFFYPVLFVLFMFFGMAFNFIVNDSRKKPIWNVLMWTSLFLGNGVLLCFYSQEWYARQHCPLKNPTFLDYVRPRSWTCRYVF
Protocol: The compounds (I) according to the invention, as well as their pharmaceutically acceptable salts, solvates and/or hydrates, have inhibitory properties on the enzyme SOAT-1. This inhibitory activity on the enzyme SOAT-1 is measured according to a primary enzymatic test HepG2, as described in Example 16.
The compounds of formula (I) according to the invention were subjected to a test allowing their inhibitory action to be evaluated with respect to the enzyme ACAT-1 inspired by the following publication: “Identification of ACAT1- and ACAT2-specific inhibitors using a novel, cell-based fluorescence assay: individual ACAT uniqueness”, J. Lipid. Res (2004) vol 45, pages 378-386. The principle of this test is based on the employment of NBD-cholesterol, an analogue of cholesterol whose fluorescence depends on its environment. When this is present in a polar environment, it is weakly fluorescent although in a nonpolar environment it is strongly fluorescent. Free NBD-cholesterol locates itself in the cell membranes and is weakly fluorescent in this polar environment. When the NBD-cholesterol is esterified by ACAT, the ester of NBD-cholesterol locates itself in the nonpolar lipid droplets and is in that case strongly fluorescent.
The method below is applied: The HepG2 cells are incubated in the presence of NBD-cholesterol (1 μg/ml) and of the compound of formula (I) to be tested in black 96-well plates with a transparent base at a rate of 30 000 cells per well. After incubation for 6 h at 37° C., under 5% CO2, the medium is eliminated by turning over and the cells are washed with 2 times 100 μl of PBS. After addition of 50 μl of lysis buffer (NaPO4 10 mM, Igepal 1%), the plates are stirred for 5 min and read in fluorescence (excitation 490 nm, emission 540 nm) on a FUSION apparatus (Perkin-Elmer).

IC50	SMILES
5.4 nM	CC(C)c1cccc(C(C)C)c1NC(=O)CN1CC2(CCCCC2)N(c2ccccc2)C1=O [I.1, N-(2,6-Diisopropylphenyl)-2-(2-oxo-1-phenyl-1,3-diazaspiro[4.5]dec-3-yl)-acetamide]
0.9 nM	CCC1(CC)CN(CC(=O)Nc2c(C(C)C)cccc2C(C)C)C(=O)N1c1ccc(C)cc1 [I.13, 2-(4,4-Diethyl-2-oxo-3-p-tolylimidazolidin-1-yl)-N-(2,6-diisopropylphenyl)-acetamide]
7.1 nM	CCc1ccc(N2C(=O)N(CC(=O)Nc3c(C(C)C)cccc3C(C)C)CC23CCCCC3)cc1 [I.9, N-(2,6-Diisopropylphenyl)-2-[1-(4-ethylphenyl)-2-oxo-1,3-diazaspiro-[4.5]dec-3-yl]acetamide]
3.2 nM	Cc1ccc(N2C3(CCCCC3)CN(CC(=O)Nc3c(C(C)C)cccc3C(C)C)S2(=O)=O)cc1 [I.5, N-(2,6-Diisopropylphenyl)-2-(2,2-dioxo-1-p-tolyl-2lambda*6*-thia-1,3-di-azaspiro[4.5]dec-3-yl)acetamide]
